According to patent US7923465B2, “Cannabinoid receptor ligands, pharmaceutical compositions containing them, and process for their preparation” (priority 2005, dated 2011):

What was measured:
CB1 [1] = biological target: T1, CB1 (Rattus norvegicus, UniProt P20272); assay: Rat CB1 receptor binding using brain membrane, [3H]SR141716A displacement (Protocol I); design: CB1 receptor present in a rat brain membrane preparation; from tissue; host or cells: rat brain membrane; conditions: rat brain membrane, [3H]SR141716A displacement
hCB2 = hCB2 (Homo sapiens, UniProt P34972); assay: In vitro binding assay using hCB2-CHO membranes, [3H]-CP-55,940 displacement (Protocol IV); design: expressed in transfected cells; host or cells: CHO (hCB2-CHO, generated in-house); conditions: hCB2-CHO membranes, [3H]-CP-55,940 displacement
In short: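 Displacement of [3H]-CP-55,940 (0.75 nM) from membranes of CHO cells expressing human CB2 (25-50 μg) was measured in Tris-BSA buffer pH 7.4 with 5 mM MgCl2, 1 mM EDTA, 0.1% BSA, 1 h at 30 °C. Test compounds were at 300 nM final; nonspecific binding defined with 0.5 μM CP-55,940. Values are % displacement of specific binding.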

hCB1 = hCB1 (Homo sapiens, UniProt P21554); assay: In vitro binding assay using hCB1-CHO membranes, [3H]-CP-55,940 displacement (Protocol II); design: expressed in transfected cells; host or cells: CHO (hCB1-CHO, generated in-house)
Experimental: II. Protocol for In Vitro Assay Using hCB1-CHO Membranes
The reaction was set up in a total volume of 200 μl in PEI (Poly(ethyleneimine)) (0.2%) precoated Millipore GFB (Glass Fibre-B) filter plates. 1 mM stocks of test compounds were prepared in DMSO and tested at a final concentration of 300 nM. The non-specific binding was determined by 0.5 μM CP-55, 940. […] The assay mixture (with or without the test compound) was incubated at 37° C. for 1 hour. The reaction was stopped by rapid filtration under vacuum and the radioactivity on the filters was measured by liquid scintillation counting.

CB1 [2] = biological target: T1, CB1; assay: GTPγS binding assay, CB1 functional assay in rat cerebellar membrane (Protocol VIII); type: biochemical; design: 10 μg rat cerebellum membrane; from tissue; host or cells: rat cerebellum membrane, prepared in-house; conditions: for Per Se % Stimulation: GTPγS binding over basal, rat cerebellar membrane; for % Inhibition of WIN-55212-2 induced stimulation: GTPγS binding
In short: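 Rat cerebellar membranes (10 μg) incubated 1 h at 30 °C with 0.2 nM [35S]GTPγS, 50 μM GDP, and compound at 1 μM or 300 nM, alone or with 1 μM WIN 55,212-2, in Tris/MgCl2/EGTA/NaCl pH 7.4. Filter-bound radioactivity counted; percent stimulation calculated against basal specific binding (nonspecific defined by 10 μM GTPγS).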

[3] = tested at 1 uM in presence of 1 μM WIN 55,212-2

Sequence of hCB2 (P34972 whole entry): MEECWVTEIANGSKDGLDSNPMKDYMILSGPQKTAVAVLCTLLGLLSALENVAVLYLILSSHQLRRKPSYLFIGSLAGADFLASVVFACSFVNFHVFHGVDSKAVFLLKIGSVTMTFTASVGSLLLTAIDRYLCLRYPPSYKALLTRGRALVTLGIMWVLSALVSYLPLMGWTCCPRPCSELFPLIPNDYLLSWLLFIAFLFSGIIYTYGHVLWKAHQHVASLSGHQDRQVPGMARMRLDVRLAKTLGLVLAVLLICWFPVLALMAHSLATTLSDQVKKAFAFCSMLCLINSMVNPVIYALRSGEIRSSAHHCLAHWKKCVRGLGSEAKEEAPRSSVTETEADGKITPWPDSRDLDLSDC
T1 sequence (P20272 whole entry): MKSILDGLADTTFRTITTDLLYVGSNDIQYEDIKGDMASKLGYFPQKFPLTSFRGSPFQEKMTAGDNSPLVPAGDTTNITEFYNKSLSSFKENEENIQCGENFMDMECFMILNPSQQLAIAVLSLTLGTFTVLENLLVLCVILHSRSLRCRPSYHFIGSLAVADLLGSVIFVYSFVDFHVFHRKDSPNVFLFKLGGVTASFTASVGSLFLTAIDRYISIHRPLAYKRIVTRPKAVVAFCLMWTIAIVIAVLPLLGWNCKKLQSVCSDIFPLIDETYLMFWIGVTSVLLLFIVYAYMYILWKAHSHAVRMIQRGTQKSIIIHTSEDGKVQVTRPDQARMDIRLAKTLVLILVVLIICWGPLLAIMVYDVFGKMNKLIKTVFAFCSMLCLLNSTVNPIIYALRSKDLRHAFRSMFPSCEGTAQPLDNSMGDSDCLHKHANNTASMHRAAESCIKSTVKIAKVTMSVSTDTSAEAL
Sequence of hCB1 (P21554 whole entry): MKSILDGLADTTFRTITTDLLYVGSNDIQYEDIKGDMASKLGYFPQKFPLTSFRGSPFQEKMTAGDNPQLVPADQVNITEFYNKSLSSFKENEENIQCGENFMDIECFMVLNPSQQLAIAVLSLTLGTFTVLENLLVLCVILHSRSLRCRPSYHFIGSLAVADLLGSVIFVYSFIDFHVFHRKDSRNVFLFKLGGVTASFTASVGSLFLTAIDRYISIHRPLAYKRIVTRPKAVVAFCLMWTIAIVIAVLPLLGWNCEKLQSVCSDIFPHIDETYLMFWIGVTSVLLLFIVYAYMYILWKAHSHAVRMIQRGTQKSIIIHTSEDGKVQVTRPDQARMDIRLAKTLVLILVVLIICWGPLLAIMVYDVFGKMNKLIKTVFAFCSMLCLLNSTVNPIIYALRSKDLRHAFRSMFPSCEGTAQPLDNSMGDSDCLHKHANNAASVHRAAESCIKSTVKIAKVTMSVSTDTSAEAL

| SMILES | % Displacement Protocol I (CB1 [1]) | % Displacement Protocol IV (hCB2) | % Displacement Protocol II (hCB1) | Per Se % Stimulation (CB1 [2]; tested at 1 uM) | % Inhibition of WIN-55212-2 induced stimulation (CB1 [2]; [3]) | Per Se % Stimulation (CB1 [2]; tested at 300 nM) | % Inhibition of WIN-55212-2 induced stimulation (CB1 [2]; tested at 300 nM in presence of 1 μM WIN 55,212-2) |
| --- | --- | --- | --- | --- | --- | --- | --- |
| O=C(NN1CCCCC1)c1nn(-c2ccccc2Br)c2c1C1CC3CC(C1)CC2C3 [Example 101, N(7)-Piperidino-5-(2-bromophenyl)-5,6-diazatetracyclo[7.3.1.1^3,110^4,8]tetradeca-4(8),6-diene-7-carboxamide] | 28.8% | 0% | 5.75% | – | – | – | – |
| O=C(NCc1ccc(Cl)cc1)c1nn(-c2ccc(Cl)cc2)c2c1C1CC3CC(C1)CC2C3 [Example 112, N(7)-(4*Chlorobenzyl)-5-(4-chlorophenyl)-5,6-diazatetracyclo[7.3.1.1^3,11.0^4,8]tetradeca-4(8)-6-diene-7-carboxamide] | 59.9% | – | 25.76% | – | – | – | – |
| O=C(NCc1ccc(F)cc1)c1nn(-c2ccc(Cl)cc2)c2c1C1CC3CC(C1)CC2C3 [Example 113, N(7)-(4-Fluorobenzyl)-5-(4-chlorophenyl)-5,6-diazatetracyclo[7.3.1.1^3,11.0^4,8]tetradeca-4(8)-6-diene-7-carboxamide] | 55.9% | 17.02% | 27.70% | – | – | – | – |
| O=C(NNc1ccc(Cl)cc1)c1nn(-c2ccc(Cl)cc2)c2c1C1CC3CC(C1)CC2C3 [Example 125] | 52.7% | 5.04% | 22.07% | – | – | – | – |
| CN(NC(=O)c1nn(-c2ccc(Cl)cc2)c2c1C1CC3CC(C1)CC2C3)c1ccc(Cl)cc1Cl.Cl [Example 128] | 83% | – | 37.28% | – | – | – | – |
| O=C(NCCc1ccccc1)c1nn(-c2ccc(Cl)cc2)c2c1C1CC3CC(C1)CC2C3 [Example 136, N(7)-(2-Phenylethyl)-5-(4-chlorophenyl)-5,6-diazatetracyclo[7.3.1.1^3,11.0^4,8]tetradeca-4(8)-6-diene-7-carboxamide] | 31.3% | 15.44% | 1.01% | – | – | – | – |
| O=C(Nc1ccccc1)c1nn(-c2ccccc2)c2c1C1CC3CC(C1)CC2C3 [Example 168, N(7)-Phenyl-5-phenyl-5,6-diazatetracyclo[7.3.1.1^3,11.0^4,8]tetradeca-4(8)-6-diene-7-carboxamide] | 37% | – | 11.47% | – | – | – | – |
| O=C(NN1CCCCC1)c1nn(-c2ccccc2)c2c1C1CC3CC(C1)CC2C3 [Example 169, N(7)-piperidino-5-phenyl-5,6-diazatetracyclo[7.3.1.1^3,11.0^4,8]tetradeca-4(8)-6-diene-7-carboxamide] | 19% | – | 29.65% | – | – | – | – |
| O=C(c1nn(-c2ccccc2)c2c1C1CC3CC(C1)CC2C3)N1CCCCC1 [Example 171, N(7)-phenyl-6,7-diazatetracyclo[7.3.1.1^3,11.0^4,8]tetradeca-4(8)-5-dien-5-yl-piperidino methanone] | 0% | 0.56% | 19.37% | – | – | – | – |
| O=C(NCc1ccccc1)c1nn(-c2ccccc2Cl)c2c1C1CC3CC(C1)CC2C3 [Example 182, N(7)-Benzyl-5-(2-chlorophenyl)-5,6-diazatetracyclo[7.3.1.1^3,11.0^4,8]tetradeca-4(8)-6-diene-7-carboxamide] | 39.9% | 12.78% | 19.35% | – | – | – | – |
| O=C(NN1CCCCC1)c1n[nH]c2c1C1CC3CC(CC2C3)C1 [Example 187, N(7)-Piperidino-5,6-diazatetracyclo[7.3.1.1^3,11.0^4,8]tetradeca-4(8)-6-diene-7-carboxamide] | 6.0% | 0.7% | 15.66% | – | – | – | – |
| O=C(c1n[nH]c2c1C1CC3CC(CC2C3)C1)N1CCCCC1 [Example 188, 6,7-Diazatetracyclo[7.3.1.1^3,11.0^4,8]tetradeca-4(8)-5-dien-5-yl-piperidinomethanone] | 19.5% | 36.01% | 12.5% | – | – | – | – |
| Cn1nc2c(c1C(=O)NN1CCCCC1)C1CC3CC(CC2C3)C1 [Example 189a, N(7)-Piperidino-6-methyl-5,6-diazatetracyclo[7.3.1.1^3,11.0^4,8]tetradeca-4(8)-6-diene-7-carboxamide] | 7% | 0.81% | 21.2% | – | – | – | – |
| Cn1nc(C(=O)NN2CCCCC2)c2c1C1CC3CC(CC2C3)C1 [Example 189b, N(7)-Piperidino-5-methyl-5,6-diazatetracyclo[7.3.1.1^3,11.0^4,8]tetradeca-4(8)-6-diene-7-carboxamide] | 3% | 2.56% | 24.03% | – | – | – | – |
| O=C(c1nn(-c2ccc(Cl)cc2)c2c1C1CCC2C1)N1CCCCC1 (stereo not drawn) [Example 210, 1-(4-Chlorophenyl)-4,5,6,7-tetrahydro-1H-4,7-methano-indazol-3-yl piperidino methanone] | 12.6% | 17.69% | 11.58% | – | – | – | – |
| O=C(NCc1ccc(C(F)(F)F)cc1)c1nn(-c2ccc(Cl)cc2)c2c1C1CCC2C1 (stereo not drawn) [Example 227, N(3)-(4-Trifluoromethylbenzyl)-1-(4-chlorophenyl)-4,5,6,7-tetrahydro-H-4,7-methano-indazole-3-carboxamide] | 25.3% | – | 3.51% | – | – | – | – |
| O=C(NNc1ccc(Cl)c(Cl)c1)c1nn(-c2ccc(Cl)cc2)c2c1C1CCC2C1 (stereo not drawn) [Example 231, N(3)-[(3,4-Dichlorophenyl)amino]-1-(4-chlorophenyl)-4,5,6,7-tetrahydro-H-4,7-methano-indazole-3-carboxamide] | 31.9% | – | 30.79% | – | – | – | – |
| O=C(NN(c1ccccc1)c1ccccc1)c1nn(-c2ccc(Cl)cc2)c2c1C1CCC2C1 (stereo not drawn) [Example 236] | 75.5% | – | 55.25% | 8.0% | 83.0% | – | – |
| C[C@H](NC(=O)c1nn(-c2ccc(Cl)cc2Cl)c2c1C1CCC2C1)c1ccccc1 (stereo partly drawn) [Example 252, N(3)-[S-(1-phenylethyl)]-1-(2,4-dichlorophenyl)-4,5,6,7-tetrahydro-1H-4,7-methano-indazole-3-carboxamide] | 99.8% | – | 74.52% | – | – | 48.2% | 58.8% |
| COC(=O)[C@@H](NC(=O)c1nn(-c2ccc(F)cc2F)c2c1C1CCC2C1)c1ccc(F)cc1 (stereo partly drawn) [Example 326, Methyl (2S)-2-[5-(2,4-difluorophenyl)-4,5-diazatricyclo[5.2.1.0.^2,6]deca-2(6),3-dien-3-ylcarboxamido]-2-(4-fluorophenyl)ethanoate] | – | 99.18% | 73.99% | – | – | – | – |
| CC(C)(NC(=O)c1nn(-c2ccc(F)cc2F)c2c1C1CCC2(C)C1(C)C)c1ccccc1 (stereo not drawn) [Example 407] | – | 88.44% | 87.28% | – | – | – | – |
| CN(NC(=O)c1nn(-c2ccc(Cl)cc2Cl)c2c1C1CCC2c2ccccc21)C1CCCCC1 (stereo not drawn) [Example 504, N(12)-[(N′-Cyclohexyl-N′-methyl)amino]-10-(2,4-dichlorophenyl)-10,11-diazatetracyclo[6.5.2.0^2,7.0^9,13]pentadeca-2,4,6,9(13),11-pentaene-12-carboxamide] | 79.7% | – | 62.9% | – | – | – | – |
| CN(NC(=O)c1nn(-c2ccc(Cl)cc2Cl)c2c1C1CCC2c2ccccc21)c1ccc(Cl)cc1Cl (stereo not drawn) [Example 505, N(12)-{N′-[(2,4-Dichlorophenyl)-N′-methyl]amino}-10-(2,4-dichlorophenyl)-10,11-diazatetracyclo[6.5.2.0^2,7.0^9,13]pentadeca-2,4,6,9(13),11-pentaene-12-carboxamide] | 90.6% | – | 77.51% | 15.6% | 94.4% | – | – |
